Several values for one entry are separate records, joined by “and”; a condition that tells them apart may be missing. Equal entries are not always repeated. Entries after “also recorded” stand apart in the source; their conditions may differ. Structures can show the parent of a compound that is named as a salt. One block for each molecule: values may come before it.
What was measured:
Malate dehydrogenase [1] = target: T1, Malate dehydrogenase (Sus scrofa, UniProt P00346); assay: Effect of concentrations of NAD+ on formation of formazan dyes (FIG. 5); type: biochemical; parameters: purchased Sigma-Aldrich 10127248001 / 10127914001 (MDH); settings: 2 mM WST-8, 15 mM malate, 1.5 units malate dehydrogenase
T1 sequence (P00346 25-338): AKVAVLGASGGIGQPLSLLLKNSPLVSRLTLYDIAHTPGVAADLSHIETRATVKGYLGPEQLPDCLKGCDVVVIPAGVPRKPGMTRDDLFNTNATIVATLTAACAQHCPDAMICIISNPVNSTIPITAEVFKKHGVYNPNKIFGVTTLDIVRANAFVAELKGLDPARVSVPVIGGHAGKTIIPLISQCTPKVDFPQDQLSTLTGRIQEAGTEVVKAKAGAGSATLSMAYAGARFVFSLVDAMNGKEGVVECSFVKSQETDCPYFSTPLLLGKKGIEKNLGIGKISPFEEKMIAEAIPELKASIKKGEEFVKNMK
Protocol: To determine optimal conditions for quantifying enzymes in the gingival brush samples, oral lavage and gingival plaques, an experiment was carried out to determine the effect of NAD+ on conversion of tetrazolium salts to formazan dyes. […] Absorbance was taken at every 5 minutes for 2 hours.

diaphorase [2] = assay: Formation of formazan dyes: only diaphorase and malate (TABLE 14); type: biochemical, Clostridium kluyveri; settings: mean of three experiments
[3] = Formation of formazan dyes: control buffer and 1-Methoxy PMS, absence of malate (TABLE 21); type: biochemical; settings: monosodium salt
diaphorase [4] = assay: Effect of concentrations of tetrazolium salts on formation of formazan dyes (FIGS. 4A-4G); type: biochemical; settings: 15 mM NADH+H, 20 μg diaphorase, pH 7.5; FIGS. 4A to 4G
Protocol: On the idea that higher concentrations of tetrazolium salts in the assay buffer would likely result in more formazan dyes in the reaction, various concentrations of tetrazolium salts were added to a reaction buffer and the formation of formazan dyes were measured at 0, 30 and 60 minutes. […] The reactions were performed at room temperature. Absorbance was taken at 0, 30 and 60 minutes.

[5] = test system: Malate dehydrogenase and diaphorase; assay: Formation of formazan dyes: Malate dehydrogenase and diaphorase, absence of malate (TABLE 9); type: biochemical, pig heart
[6] = Formation of formazan dyes: NADH and 1-methoxy PMS, absence of malate (TABLE 15); type: biochemical
diaphorase [7] = assay: Formation of formazan dyes: NADH, diaphorase and malate (TABLE 8); type: biochemical, Clostridium kluyveri; settings: NADH, diaphorase and malate
diaphorase [8] = assay: Formation of formazan dyes: NADH and diaphorase, absence of malate (TABLE 7); type: biochemical, Clostridium kluyveri; settings: NADH and diaphorase, absence of malate
[9] = test system: Malate dehydrogenase and diaphorase; assay: Formation of formazan dyes: Malate dehydrogenase, diaphorase and malate (TABLE 10); type: biochemical, pig heart
oral lavage [10] = assay: Formation of formazan dyes: oral lavage, malate and diaphorase (TABLE 12); type: biochemical, human; settings: oral lavage, malate and diaphorase
[11] = Formation of formazan dyes: control buffer, malate and 1-Methoxy PMS (TABLE 22); type: biochemical
oral lavage [12] = assay: Formation of formazan dyes: oral lavage and 1-Methoxy PMS, absence of malate (TABLE 19); type: biochemical, human; settings: monosodium salt
[13] = Formation of formazan dyes: NADH, malate and 1-methoxy PMS (TABLE 16); type: biochemical; settings: monosodium salt
Malate dehydrogenase [14] = target: T1, Malate dehydrogenase; assay: Formation of formazan dyes: Malate dehydrogenase and 1-Methoxy PMS, absence of malate (TABLE 17); type: biochemical, pig heart; parameters: L-malate dehydrogenase (pig heart); purchased Sigma-Aldrich 10127248001 / 10127914001
oral lavage [15] = assay: Formation of formazan dyes: oral lavage and diaphorase, not malate (TABLE 11); type: biochemical, human
diaphorase [16] = assay: Formation of formazan dyes: only diaphorase, not malate (TABLE 13); type: biochemical, Clostridium kluyveri; settings: mean of three experiments
[17] = UV absorbance analysis of formazan products, TABLE 6; settings: in the presence of 1-methoxy PMS
Malate dehydrogenase [18] = target: T1, Malate dehydrogenase; assay: Effect of concentrations of malate on formation of formazan dyes (FIG. 6); type: biochemical; parameters: purchased Sigma-Aldrich 10127248001 / 10127914001 (MDH); settings: 2 mM WST-8, 128.5 μM NAD+, 1.5 units malate dehydrogenase
Protocol: Substrate concentrations are important parameters in an enzymatic assay. An experiment was carried out to determine the effect of malate concentrations on formation of formazan dyes. […] Absorbance was measured every 5 minutes for 2 hours. […] But at low concentrations from 0.001 mM to 15.6 mM, formation of formazan dyes was positively correlated with malate concentrations.

SMILES: NC(=O)c1ccc[n+]([C@@H]2O[C@H](COP(=O)([O-])OP(=O)(O)OC[C@H]3O[C@@H](n4cnc5c(N)ncnc54)[C@H](O)[C@@H]3O)[C@@H](O)[C@H]2O)c1 [NAD+, Nicotinamide adenine dinucleotide]
amount of formazan formation versus NAD+ concentration (Malate dehydrogenase [1]): proportional to the concentrations of NAD+

SMILES: COc1cc([N+](=O)[O-])ccc1-[n+]1nc(-c2ccc(S(=O)(=O)[O-])cc2S(=O)(=O)[O-])nn1-c1ccc([N+](=O)[O-])cc1.[Na+] [WST-8, 5-(2,4-disulfophenyl)-3-(2-methoxy-4-nitrophenyl)-2-(4-nitrophenyl)-2H-tetrazolium, inner salt, monosodium salt]
Absorbance, formation of formazan dyes (Means) (diaphorase [2]; 0 h): 0.10
Absorbance, formation of formazan dyes (Means) (diaphorase [2]; 1 h): 0.14
Absorbance, formation of formazan dyes (Means) (diaphorase [2]; 2 h): 0.16
Absorbance, formation of formazan dyes (Means) (diaphorase [2]; 3 h): 0.19
Absorbance, formation of formazan dyes (Means) (diaphorase [2]; 4 h): 0.21
Absorbance, formation of formazan dyes (Means) (diaphorase [2]; 6 h): 0.26
Absorbance, formation of formazan dyes (Means) (diaphorase [2]; 8 h): 0.31
Absorbance, formation of formazan dyes (Means) (diaphorase [2]; 10 h): 0.35
Absorbance, formation of formazan dyes (Means) (diaphorase [2]; 12 h): 0.38
Absorbance, formation of formazan dyes (Means) [3]: 0.44 and 0.55 and 0.49 and 0.62
concentration of tetrazolium salt at which absorbance reached peaks (diaphorase [4]): 2 mM
Formation of formazan dyes, absorbance, Means 0 h ([5]; Malate dehydrogenase and diaphorase, absence of malate, 0 h): 1.13
Formation of formazan dyes, absorbance, Means 1 h ([5]; Malate dehydrogenase and diaphorase, absence of malate, 1 h): 1.84
Formation of formazan dyes, absorbance, Means 2 h ([5]; Malate dehydrogenase and diaphorase, absence of malate, 2 h): 2.15
Formation of formazan dyes, absorbance, Means 3 h ([5]; Malate dehydrogenase and diaphorase, absence of malate, 3 h): 2.32
Formation of formazan dyes, absorbance, Means 4 h ([5]; Malate dehydrogenase and diaphorase, absence of malate, 4 h): 2.41
Formation of formazan dyes, absorbance, Means 6 h ([5]; Malate dehydrogenase and diaphorase, absence of malate, 6 h): 2.62
Formation of formazan dyes, absorbance, Means 8 h ([5]; Malate dehydrogenase and diaphorase, absence of malate, 8 h): 2.72
Formation of formazan dyes, absorbance, Means 10 h ([5]; Malate dehydrogenase and diaphorase, absence of malate, 10 h): 2.80
Formation of formazan dyes, absorbance, Means 12 h ([5]; Malate dehydrogenase and diaphorase, absence of malate, 12 h): 2.89
reduction of tetrazolium dye in the absence of substrate malate ([5]; malate dehydrogenase and diaphorase (TABLE 9)): partially reduced
formation of formazan dyes / precipitates with 1-methoxy PMS and NADH [6]: converted to formazan dyes quickly
Absorbance, formation of formazan dyes (Means) ([6]; monosodium salt): 3.65 and 3.66 and 3.67
Formation of formazan dyes, absorbance, Means 0 h (diaphorase [7]; 0 h): 3.06
Formation of formazan dyes, absorbance, Means 1 h (diaphorase [7]; 1 h): 3.36
Formation of formazan dyes, absorbance, Means 2 h (diaphorase [7]; 2 h): 3.47
Formation of formazan dyes, absorbance, Means 3 h (diaphorase [7]; 3 h): 3.53
Formation of formazan dyes, absorbance, Means 4 h (diaphorase [7]; 4 h): 3.50
Formation of formazan dyes, absorbance, Means 6 h (diaphorase [7]; 6 h): 3.54
Formation of formazan dyes, absorbance, Means 8 h (diaphorase [7]; 8 h): 3.54
Formation of formazan dyes, absorbance, Means 10 h (diaphorase [7]; 10 h): 3.51
Formation of formazan dyes, absorbance, Means 12 h (diaphorase [7]; 12 h): 3.45
Formation of formazan dyes, absorbance, Means 0 h (diaphorase [8]; 0 h): 3.54
Formation of formazan dyes, absorbance, Means 1 h (diaphorase [8]; 1 h): 3.72
Formation of formazan dyes, absorbance, Means 2 h (diaphorase [8]; 2 h): 3.77
Formation of formazan dyes, absorbance, Means 3 h (diaphorase [8]; 3 h): 3.77
Formation of formazan dyes, absorbance, Means 4 h (diaphorase [8]; 4 h): 3.63
Formation of formazan dyes, absorbance, Means 6 h (diaphorase [8]; 6 h): 3.64
Formation of formazan dyes, absorbance, Means 8 h (diaphorase [8]; 8 h): 3.66
Formation of formazan dyes, absorbance, Means 10 h (diaphorase [8]; 10 h): 3.65
Formation of formazan dyes, absorbance, Means 12 h (diaphorase [8]; 12 h): 3.67
Formation of formazan dyes, absorbance, Means 0 h ([9]; Malate dehydrogenase, diaphorase and malate, 0 h): 1.13
Formation of formazan dyes, absorbance, Means 1 h ([9]; Malate dehydrogenase, diaphorase and malate, 1 h): 1.93
Formation of formazan dyes, absorbance, Means 2 h ([9]; Malate dehydrogenase, diaphorase and malate, 2 h): 2.36
Formation of formazan dyes, absorbance, Means 3 h ([9]; Malate dehydrogenase, diaphorase and malate, 3 h): 2.65
Formation of formazan dyes, absorbance, Means 4 h ([9]; Malate dehydrogenase, diaphorase and malate, 4 h): 2.86
Formation of formazan dyes, absorbance, Means 6 h ([9]; Malate dehydrogenase, diaphorase and malate, 6 h): 3.12
Formation of formazan dyes, absorbance, Means 8 h ([9]; Malate dehydrogenase, diaphorase and malate, 8 h): 3.26
Formation of formazan dyes, absorbance, Means 10 h ([9]; Malate dehydrogenase, diaphorase and malate, 10 h): 3.30
Formation of formazan dyes, absorbance, Means 12 h ([9]; Malate dehydrogenase, diaphorase and malate, 12 h): 3.28
conversion to reduced formazan dyes ([9]; malate dehydrogenase, diaphorase and malate (TABLE 10), monosodium salt): converted to reduced formazan dyes in a time-dependent fashion; also recorded: able to catalyze the reduction
Formation of formazan dyes, absorbance, Means 0 h (oral lavage [10]; 0 h): 0.51
Formation of formazan dyes, absorbance, Means 1 h (oral lavage [10]; 1 h): 0.70
Formation of formazan dyes, absorbance, Means 2 h (oral lavage [10]; 2 h): 0.80
Formation of formazan dyes, absorbance, Means 3 h (oral lavage [10]; 3 h): 0.84
Formation of formazan dyes, absorbance, Means 4 h (oral lavage [10]; 4 h): 0.85
Formation of formazan dyes, absorbance, Means 6 h (oral lavage [10]; 6 h): 0.91
Formation of formazan dyes, absorbance, Means 8 h (oral lavage [10]; 8 h): 1.05
Formation of formazan dyes, absorbance, Means 10 h (oral lavage [10]; 10 h): 1.09
Formation of formazan dyes, absorbance, Means 12 h (oral lavage [10]; 12 h): 1.33
Means absorbance 0 h [11]: 0.19
Means absorbance 1 h [11]: 0.20
Means absorbance 2 h [11]: 0.23
Means absorbance 3 h [11]: 0.26
Absorbance, formation of formazan dyes (Means) (oral lavage [12]): 1.03 and 1.38 and 1.68 and 1.86
Absorbance, formation of formazan dyes (Means) [13]: 3.37 and 3.42 and 3.41
reduction by malate dehydrogenase alone (Malate dehydrogenase [14]): did not catalyze the reduction
Absorbance, formation of formazan dyes (Means) (Malate dehydrogenase [14]; monosodium salt): 0.35 and 0.47
Formation of formazan dyes, absorbance, Means 0 h (oral lavage [15]; oral lavage and diaphorase, not malate, 0 h): 0.59
Formation of formazan dyes, absorbance, Means 1 h (oral lavage [15]; oral lavage and diaphorase, not malate, 1 h): 0.83
Formation of formazan dyes, absorbance, Means 2 h (oral lavage [15]; oral lavage and diaphorase, not malate, 2 h): 0.87
Formation of formazan dyes, absorbance, Means 3 h (oral lavage [15]; oral lavage and diaphorase, not malate, 3 h): 0.84
Formation of formazan dyes, absorbance, Means 4 h (oral lavage [15]; oral lavage and diaphorase, not malate, 4 h): 0.82
Formation of formazan dyes, absorbance, Means 6 h (oral lavage [15]; oral lavage and diaphorase, not malate, 6 h): 0.88
Formation of formazan dyes, absorbance, Means 8 h (oral lavage [15]; oral lavage and diaphorase, not malate, 8 h): 1.00
Formation of formazan dyes, absorbance, Means 10 h (oral lavage [15]; oral lavage and diaphorase, not malate, 10 h): 1.00
Formation of formazan dyes, absorbance, Means 12 h (oral lavage [15]; oral lavage and diaphorase, not malate, 12 h): 1.01
reduction to formazan dyes by pooled oral lavage (oral lavage [15]; pooled oral lavage of high bleeder group, diaphorase, no added malate (TABLE 11)): partially reduced to formazan dyes
Absorbance, formation of formazan dyes (Means) (diaphorase [16]; 0 h): 0.22
Absorbance, formation of formazan dyes (Means) (diaphorase [16]; 1 h): 0.38
Absorbance, formation of formazan dyes (Means) (diaphorase [16]; 2 h): 0.46
Absorbance, formation of formazan dyes (Means) (diaphorase [16]; 3 h): 0.48
Absorbance, formation of formazan dyes (Means) (diaphorase [16]; 4 h): 0.43
Absorbance, formation of formazan dyes (Means) (diaphorase [16]; 6 h): 0.46
Absorbance, formation of formazan dyes (Means) (diaphorase [16]; 8 h): 0.44
Absorbance, formation of formazan dyes (Means) (diaphorase [16]; 10 h): 0.44
Absorbance, formation of formazan dyes (Means) (diaphorase [16]; 12 h): 0.47

SMILES: O=[N+]([O-])c1ccc(-n2nc(-c3ccccc3)n[n+]2-c2ccc(/N=N/c3ccc(S(=O)(=O)O)cc3)cc2S(=O)(=O)[O-])cc1 [WST-9, 2-(4-Nitrophenyl)-5-phenyl-3-[4-(4-sulfophenylazo)-2-sulfophenyl]-2H-tetrazolium, monosodium salt]
solubility of formazan products [17]: form precipitates

malate concentrations that inhibited production of formazan dyes (Malate dehydrogenase [18]): above 65 mM
SMILES: O=C(O)CC(O)C(=O)O (stereo not drawn) [malate]
